Positions of bridges follow the written chain, without caps; N, C: chain ends. Non-standard residues stand in square brackets, D forms with d. Residues, ends and D or L forms follow the SMILES beside them. Phe(2-Cl) = N[C@@H](Cc1ccccc1Cl)C(=O)O; NMeF = CN[C@@H](Cc1ccccc1)C(=O)O; hPhe = N[C@@H](CCc1ccccc1)C(=O)O; Sar = CNCC(=O)O

The values that follow come from US9340590B2 (priority 2011, dated 2016).

Assay in all cases: cell-based
Assay [1] addresses hNav1.7 (Homo sapiens, UniProt Q15858). Type of assay: cell-based. Conditions: IonWorks Quattro, use-dependent protocol, hNav1.7; read-out: IWQ Use Nav1.7.
Assay [2] concerns the target hNav1.5 (Homo sapiens, UniProt Q14524). The settings on record: IonWorks Quattro, use-dependent protocol, hNav1.5; read-out: IWQ Use Nav1.5.
For assay [3], the target named is hNav1.3 (Homo sapiens, UniProt Q9NY46). The settings on record: IonWorks Quattro, use-dependent protocol, hNav1.3; read-out: IWQ Use Nav1.3. In general terms: In patch-clamp work, channel activity is measured electrically.
hNav1.3, sequence (Q9NY46 whole entry, looked up): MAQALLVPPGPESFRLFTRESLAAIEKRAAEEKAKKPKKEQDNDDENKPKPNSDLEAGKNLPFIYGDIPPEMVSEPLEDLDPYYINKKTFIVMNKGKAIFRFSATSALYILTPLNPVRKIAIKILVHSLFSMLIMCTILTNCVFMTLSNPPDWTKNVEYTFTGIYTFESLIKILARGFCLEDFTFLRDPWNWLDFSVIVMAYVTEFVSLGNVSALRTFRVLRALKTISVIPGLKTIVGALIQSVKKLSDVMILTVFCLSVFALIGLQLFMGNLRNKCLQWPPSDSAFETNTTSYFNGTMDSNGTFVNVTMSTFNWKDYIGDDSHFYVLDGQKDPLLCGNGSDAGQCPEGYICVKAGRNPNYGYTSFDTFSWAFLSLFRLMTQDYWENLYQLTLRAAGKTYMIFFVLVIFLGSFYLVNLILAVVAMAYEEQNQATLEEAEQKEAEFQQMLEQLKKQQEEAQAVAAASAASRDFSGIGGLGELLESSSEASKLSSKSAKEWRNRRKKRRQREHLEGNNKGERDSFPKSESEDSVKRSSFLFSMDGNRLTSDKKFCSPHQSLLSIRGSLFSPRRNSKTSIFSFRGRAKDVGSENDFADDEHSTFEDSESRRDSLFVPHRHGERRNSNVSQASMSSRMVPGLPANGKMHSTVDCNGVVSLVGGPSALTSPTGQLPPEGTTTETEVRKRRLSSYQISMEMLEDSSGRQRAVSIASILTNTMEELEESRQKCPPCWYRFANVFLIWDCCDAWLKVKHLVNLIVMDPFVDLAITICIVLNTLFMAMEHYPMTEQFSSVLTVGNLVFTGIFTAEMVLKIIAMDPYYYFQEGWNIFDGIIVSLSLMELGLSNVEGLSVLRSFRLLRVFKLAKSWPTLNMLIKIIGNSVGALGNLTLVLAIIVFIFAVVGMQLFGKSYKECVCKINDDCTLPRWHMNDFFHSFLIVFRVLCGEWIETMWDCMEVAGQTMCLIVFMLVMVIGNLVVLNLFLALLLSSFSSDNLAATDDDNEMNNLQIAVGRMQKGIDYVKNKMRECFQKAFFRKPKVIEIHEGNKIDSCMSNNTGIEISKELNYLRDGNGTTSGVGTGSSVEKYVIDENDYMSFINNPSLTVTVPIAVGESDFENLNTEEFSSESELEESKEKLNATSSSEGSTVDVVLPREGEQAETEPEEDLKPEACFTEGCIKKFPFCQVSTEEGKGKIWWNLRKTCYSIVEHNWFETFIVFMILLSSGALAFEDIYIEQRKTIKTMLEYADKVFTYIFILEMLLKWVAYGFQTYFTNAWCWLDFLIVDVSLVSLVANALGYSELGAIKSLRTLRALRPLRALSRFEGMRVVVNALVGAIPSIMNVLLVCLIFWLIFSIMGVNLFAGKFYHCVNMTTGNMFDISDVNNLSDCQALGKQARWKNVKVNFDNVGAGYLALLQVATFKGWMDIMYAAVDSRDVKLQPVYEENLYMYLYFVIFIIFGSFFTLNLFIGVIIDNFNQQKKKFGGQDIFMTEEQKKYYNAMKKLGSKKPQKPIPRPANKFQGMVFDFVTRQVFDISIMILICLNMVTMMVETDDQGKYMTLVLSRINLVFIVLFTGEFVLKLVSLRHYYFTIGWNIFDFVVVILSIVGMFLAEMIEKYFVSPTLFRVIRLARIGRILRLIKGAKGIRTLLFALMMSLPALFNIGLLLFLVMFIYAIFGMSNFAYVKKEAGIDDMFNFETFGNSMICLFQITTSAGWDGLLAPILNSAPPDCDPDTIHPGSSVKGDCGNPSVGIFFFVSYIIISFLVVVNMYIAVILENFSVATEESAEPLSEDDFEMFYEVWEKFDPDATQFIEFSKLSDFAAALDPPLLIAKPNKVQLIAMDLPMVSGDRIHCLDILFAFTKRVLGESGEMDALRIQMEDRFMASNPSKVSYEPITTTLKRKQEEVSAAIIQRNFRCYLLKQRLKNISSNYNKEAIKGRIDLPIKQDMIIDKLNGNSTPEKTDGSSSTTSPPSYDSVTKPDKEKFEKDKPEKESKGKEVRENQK

hNav1.5, sequence (Q14524 whole entry, looked up): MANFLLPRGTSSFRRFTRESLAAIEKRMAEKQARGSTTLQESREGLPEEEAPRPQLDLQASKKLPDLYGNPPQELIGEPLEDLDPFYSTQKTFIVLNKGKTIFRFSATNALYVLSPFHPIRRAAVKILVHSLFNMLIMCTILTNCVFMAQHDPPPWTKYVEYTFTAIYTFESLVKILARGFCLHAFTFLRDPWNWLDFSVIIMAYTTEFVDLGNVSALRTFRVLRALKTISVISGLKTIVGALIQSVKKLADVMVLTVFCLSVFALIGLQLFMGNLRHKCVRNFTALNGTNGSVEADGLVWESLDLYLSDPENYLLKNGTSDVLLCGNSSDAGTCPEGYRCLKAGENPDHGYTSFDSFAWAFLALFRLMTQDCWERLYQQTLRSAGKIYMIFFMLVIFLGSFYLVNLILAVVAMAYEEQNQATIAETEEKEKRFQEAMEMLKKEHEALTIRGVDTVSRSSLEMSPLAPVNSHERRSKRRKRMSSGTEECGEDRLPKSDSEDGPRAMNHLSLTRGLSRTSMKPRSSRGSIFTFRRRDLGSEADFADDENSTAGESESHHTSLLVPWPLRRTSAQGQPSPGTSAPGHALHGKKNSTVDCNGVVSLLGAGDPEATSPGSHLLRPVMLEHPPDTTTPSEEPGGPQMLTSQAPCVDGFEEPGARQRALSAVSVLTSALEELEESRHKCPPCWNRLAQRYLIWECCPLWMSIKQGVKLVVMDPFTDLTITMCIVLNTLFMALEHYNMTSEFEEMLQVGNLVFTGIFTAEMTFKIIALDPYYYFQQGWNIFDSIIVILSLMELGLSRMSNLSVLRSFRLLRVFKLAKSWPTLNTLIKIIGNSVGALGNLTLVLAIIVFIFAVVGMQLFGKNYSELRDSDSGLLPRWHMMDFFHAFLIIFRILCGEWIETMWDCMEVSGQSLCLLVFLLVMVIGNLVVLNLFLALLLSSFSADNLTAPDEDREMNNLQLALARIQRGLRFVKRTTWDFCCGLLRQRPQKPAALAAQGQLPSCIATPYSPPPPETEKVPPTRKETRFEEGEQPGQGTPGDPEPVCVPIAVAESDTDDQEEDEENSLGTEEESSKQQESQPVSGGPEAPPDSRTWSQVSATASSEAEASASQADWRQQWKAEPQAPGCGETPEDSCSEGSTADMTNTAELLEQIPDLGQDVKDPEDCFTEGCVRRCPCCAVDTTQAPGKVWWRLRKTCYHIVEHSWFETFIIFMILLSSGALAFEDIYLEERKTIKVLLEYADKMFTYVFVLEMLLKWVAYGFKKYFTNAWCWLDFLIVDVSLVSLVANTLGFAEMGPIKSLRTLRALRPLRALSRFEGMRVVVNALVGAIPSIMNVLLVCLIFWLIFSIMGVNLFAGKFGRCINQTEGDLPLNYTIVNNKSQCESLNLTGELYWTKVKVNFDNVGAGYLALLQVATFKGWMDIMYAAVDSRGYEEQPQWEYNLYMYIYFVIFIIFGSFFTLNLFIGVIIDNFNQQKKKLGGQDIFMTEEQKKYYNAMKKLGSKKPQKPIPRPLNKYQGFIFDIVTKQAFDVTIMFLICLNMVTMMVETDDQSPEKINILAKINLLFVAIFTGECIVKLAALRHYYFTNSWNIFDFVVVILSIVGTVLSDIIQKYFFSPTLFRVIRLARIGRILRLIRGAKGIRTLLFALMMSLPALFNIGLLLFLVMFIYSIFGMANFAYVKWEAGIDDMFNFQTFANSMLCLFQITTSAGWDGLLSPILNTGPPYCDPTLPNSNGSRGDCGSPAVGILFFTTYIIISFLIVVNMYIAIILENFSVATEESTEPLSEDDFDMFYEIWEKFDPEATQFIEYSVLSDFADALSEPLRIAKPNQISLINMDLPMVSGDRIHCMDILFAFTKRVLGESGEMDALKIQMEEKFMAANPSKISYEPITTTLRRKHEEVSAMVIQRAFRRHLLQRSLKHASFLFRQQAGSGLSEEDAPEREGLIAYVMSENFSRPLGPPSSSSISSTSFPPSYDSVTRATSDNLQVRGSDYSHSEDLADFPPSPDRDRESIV

For the compound `CC[C@H](C)[C@@H]1NC(=O)[C@@H]2CSSC[C@@H]3NC(=O)[C@H](C(C)C)NC(=O)[C@H](CC(C)C)NC(=O)[C@H](CC(N)=O)NC(=O)[C@@H]4CCCN4C(=O)[C@H](CCCNC(=N)N)NC(=O)[C@H](CSSC[C@H](NC(=O)[C@@H](N)CC(=O)O)C(=O)N[C@@H](CC(C)C)C(=O)NCC(=O)N(C)[C@@H](Cc4ccccc4)C(=O)N[C@@H](Cc4ccccc4)C(=O)N[C@@H](CCCNC(=N)N)C(=O)N[C@@H](CCCCN)C(=O)N2)NC(=O)[C@H](CSSC[C@@H](C(=O)N[C@@H](CCCCN)C(=O)N[C@@H](Cc2ccc(O)cc2)C(=O)N[C@H](C(=O)N[C@@H](Cc2ccccc2)C(N)=O)C(C)C)NC(=O)[C@H](Cc2c[nH]c4ccccc24)NC(=O)[C@H](CCCCN)NC(=O)[C@H](Cc2c[nH]cn2)NC(=O)[C@H]([C@@H](C)O)NC(=O)[C@H](CCCNC(=N)N)NC(=O)[C@H](CO)NC3=O)NC(=O)[C@H](CCCCN)NC(=O)[C@H](CC(=O)O)NC(=O)[C@H](CC(N)=O)NC(=O)[C@H](CC(=O)O)NC(=O)[C@@H]2CCCN2C1=O` [compound 629] (H-DCLG[NMeF]FRKCIPDNDKCCRPNLVCSRTHKWCKYVF-NH2; disulfide 2-17, 9-23, 16-30), the results for the IC50 in assay [1], in assay [2] and in assay [3] were 77 nM, 13600 nM and 95 nM, respectively.

For the compound `CC[C@H](C)[C@@H]1NC(=O)[C@@H]2CSSC[C@@H]3NC(=O)[C@H](C(C)C)NC(=O)[C@H](CC(C)C)NC(=O)[C@H](CC(N)=O)NC(=O)[C@@H]4CCCN4C(=O)[C@H](CCCNC(=N)N)NC(=O)[C@H](CSSC[C@H](NC(=O)[C@@H](N)CC(=O)O)C(=O)N[C@@H](CC(C)C)C(=O)NCC(=O)N[C@@H](Cc4ccccc4Cl)C(=O)N[C@@H](Cc4ccccc4)C(=O)N[C@@H](CCCNC(=N)N)C(=O)N[C@@H](CCCCN)C(=O)N2)NC(=O)[C@H](CSSC[C@@H](C(=O)N[C@@H](CCCCN)C(=O)N[C@@H](Cc2ccc(O)cc2)C(=O)N[C@H](C(=O)N[C@@H](Cc2ccccc2)C(N)=O)C(C)C)NC(=O)[C@H](Cc2c[nH]c4ccccc24)NC(=O)[C@H](CCCCN)NC(=O)[C@H](Cc2c[nH]cn2)NC(=O)[C@H]([C@@H](C)O)NC(=O)[C@H](CCCNC(=N)N)NC(=O)[C@H](CO)NC3=O)NC(=O)[C@H](CCCCN)NC(=O)[C@H](CC(=O)O)NC(=O)[C@H](CC(N)=O)NC(=O)[C@H](CC(=O)O)NC(=O)[C@@H]2CCCN2C1=O` [compound 630] (H-DCLG[Phe(2-Cl)]FRKCIPDNDKCCRPNLVCSRTHKWCKYVF-NH2; disulfide 2-17, 9-23, 16-30), the results for the IC50 in assay [1], in assay [2] and in assay [3] were 60 nM, 5800 nM and 9 nM, respectively.

Consider `CC[C@H](C)[C@@H]1NC(=O)[C@@H]2CSSC[C@@H]3NC(=O)[C@H](C(C)C)NC(=O)[C@H](CC(C)C)NC(=O)[C@H](CC(N)=O)NC(=O)[C@@H]4CCCN4C(=O)[C@H](CCCNC(=N)N)NC(=O)[C@H](CSSC[C@H](NC(=O)[C@@H](N)CC(=O)O)C(=O)N[C@@H](CC(C)C)C(=O)NCC(=O)N[C@@H](CCc4ccccc4)C(=O)N[C@@H](Cc4ccccc4)C(=O)N[C@@H](CCCNC(=N)N)C(=O)N[C@@H](CCCCN)C(=O)N2)NC(=O)[C@H](CSSC[C@@H](C(=O)N[C@@H](CCCCN)C(=O)N[C@@H](Cc2ccc(O)cc2)C(=O)N[C@H](C(=O)N[C@@H](Cc2ccccc2)C(N)=O)C(C)C)NC(=O)[C@H](Cc2c[nH]c4ccccc24)NC(=O)[C@H](CCCCN)NC(=O)[C@H](Cc2c[nH]cn2)NC(=O)[C@H]([C@@H](C)O)NC(=O)[C@H](CCCNC(=N)N)NC(=O)[C@H](CO)NC3=O)NC(=O)[C@H](CCCCN)NC(=O)[C@H](CC(=O)O)NC(=O)[C@H](CC(N)=O)NC(=O)[C@H](CC(=O)O)NC(=O)[C@@H]2CCCN2C1=O` [compound 631] (H-DCLG[hPhe]FRKCIPDNDKCCRPNLVCSRTHKWCKYVF-NH2; disulfide 2-17, 9-23, 16-30), for which the IC50 was found to be 19 nM in assay [1], 4900 nM in assay [2] and 5 nM in assay [3].

Turning to `CC[C@H](C)[C@@H]1NC(=O)[C@@H]2CSSC[C@@H]3NC(=O)[C@H](C(C)C)NC(=O)[C@H](CC(C)C)NC(=O)[C@H](CC(N)=O)NC(=O)[C@@H]4CCCN4C(=O)[C@H](CCCNC(=N)N)NC(=O)[C@H](CSSC[C@H](NC(=O)[C@@H](N)CC(=O)O)C(=O)N[C@@H](CC(C)C)C(=O)NCC(=O)N(C)CC(=O)N[C@@H](Cc4ccccc4)C(=O)N[C@@H](CCCNC(=N)N)C(=O)N[C@@H](CCCCN)C(=O)N2)NC(=O)[C@H](CSSC[C@@H](C(=O)N[C@@H](CCCCN)C(=O)N[C@@H](Cc2ccc(O)cc2)C(=O)N[C@H](C(=O)N[C@@H](Cc2ccccc2)C(N)=O)C(C)C)NC(=O)[C@H](Cc2c[nH]c4ccccc24)NC(=O)[C@H](CCCCN)NC(=O)[C@H](Cc2c[nH]cn2)NC(=O)[C@H]([C@@H](C)O)NC(=O)[C@H](CCCNC(=N)N)NC(=O)[C@H](CO)NC3=O)NC(=O)[C@H](CCCCN)NC(=O)[C@H](CC(=O)O)NC(=O)[C@H](CC(N)=O)NC(=O)[C@H](CC(=O)O)NC(=O)[C@@H]2CCCN2C1=O` [compound 632] (H-DCLG[Sar]FRKCIPDNDKCCRPNLVCSRTHKWCKYVF-NH2; disulfide 2-17, 9-23, 16-30), the IC50 came out at 680 nM in assay [1], 10500 nM in assay [2] and 450 nM in assay [3].

On to `CC[C@H](C)[C@@H]1NC(=O)[C@@H]2CSSC[C@@H]3NC(=O)[C@H](C(C)C)NC(=O)[C@H](CC(C)C)NC(=O)[C@H](CC(N)=O)NC(=O)[C@@H]4CCCN4C(=O)[C@H](CCCNC(=N)N)NC(=O)[C@H](CSSC[C@H](NC(=O)[C@@H](N)CC(=O)O)C(=O)N[C@@H](CC(C)C)C(=O)NCC(=O)NCCC(=O)N[C@@H](CC(C)C)C(=O)N[C@@H](CCCNC(=N)N)C(=O)N[C@@H](CCCCN)C(=O)N2)NC(=O)[C@H](CSSC[C@@H](C(=O)N[C@@H](CCCCN)C(=O)N[C@@H](Cc2ccc(O)cc2)C(=O)N[C@H](C(=O)N[C@@H](Cc2ccccc2)C(N)=O)C(C)C)NC(=O)[C@H](Cc2c[nH]c4ccccc24)NC(=O)[C@H](CCCCN)NC(=O)[C@H](Cc2c[nH]cn2)NC(=O)[C@H]([C@@H](C)O)NC(=O)[C@H](CCCNC(=N)N)NC(=O)[C@H](CO)NC3=O)NC(=O)[C@H](CCCCN)NC(=O)[C@H](CC(=O)O)NC(=O)[C@H](CC(N)=O)NC(=O)[C@H](CC(=O)O)NC(=O)[C@@H]2CCCN2C1=O` [compound 634], for which the IC50 in assay [1] was found to be 9300 nM; in assay [2] it was 14100 nM; in assay [3], 18100 nM.

For `CC[C@@H]1NC(=O)CNC(=O)[C@H](CC(C)C)NC(=O)[C@@H](NC(=O)[C@@H](N)CC(=O)O)CSSC[C@@H]2NC(=O)[C@@H]3CSSC[C@@H](C(=O)N[C@@H](CCCCN)C(=O)N[C@@H](Cc4ccc(O)cc4)C(=O)N[C@H](C(=O)N[C@@H](Cc4ccccc4)C(N)=O)C(C)C)NC(=O)[C@H](Cc4c[nH]c5ccccc45)NC(=O)[C@H](CCCCN)NC(=O)[C@H](Cc4c[nH]cn4)NC(=O)[C@H]([C@@H](C)O)NC(=O)[C@H](CCCNC(=N)N)NC(=O)[C@H](CO)NC(=O)[C@H](CSSC[C@H](NC(=O)[C@H](CCCCN)NC(=O)[C@H](CCCNC(=N)N)NC(=O)[C@H](CC(C)C)NC1=O)C(=O)N[C@@H]([C@@H](C)CC)C(=O)N1CCC[C@H]1C(=O)N[C@@H](CC(=O)O)C(=O)N[C@@H](CC(N)=O)C(=O)N[C@@H](CC(=O)O)C(=O)N[C@@H](CCCCN)C(=O)N3)NC(=O)[C@H](C(C)C)NC(=O)[C@H](CC(C)C)NC(=O)[C@H](CC(N)=O)NC(=O)[C@@H]1CCCN1C(=O)[C@H](CCCNC(=N)N)NC2=O` [compound 636], the IC50 in assay [1] was 290 nM; in assay [2], 16700 nM; in assay [3], 1000 nM.
